Data: patent publication US10682371B2, “Small molecule conjugates specifically activated in tumor microenvironment for targeting and use thereof” (priority 2014, dated 2020)
Like-named read-outs stand apart in the source and are kept apart here.

Key:
[1] = system: Human breast cancer MDA-MB435 tumor tissue homogenate; type: biochemical; conditions: for Activation Efficiencies (%): Human breast cancer MDA-MB435 tumor tissue homogenate (30 μg/ml), 1 mg/ml compound; for Activation ratio (%) in homogenates from different tumor tissues: Human breast cancer MDA-MB435
Method: (§1) At 37 °C, sample compounds were added into 100 μg acidized tumor tissue homogenates (pH6.0) in a concentration of 1 mg/ml.
(§2) At 37 °C, sample compounds were added into 100 μg acidized human breast cancer (MDA-MB435) tumor tissue homogenates (pH6.0) in a concentration of 1 mg/ml.
(§3) […], sample compounds were added into 100 μg acidized tumor tissue homogenates (pH6.0) in a concentration of 1 mg/ml.
as §2
(§4) At 37 °C, sample compounds were added into 100 μg acidized tumor tissue homogenates in a concentration of 1 mg/ml.
(§5) In the experiments, at 37 °C, compounds were added into proteases in 100 μg acidized tumor tissue homogenates in a concentration of 1 mg/ml. […] Meanwhile certain compounds produced in the screening were compared and their activation efficiency in same tissue was analyzed.
(§6) At 37° C., compounds were added into proteases in 100 μg acidized tumor tissue homogenates in a concentration of 1 mg/ml.

[2] = system: Human chronic leukemia K562 tumor tissue homogenate; type: biochemical; conditions: for Activation Efficiencies (%): Human chronic leukemia K562 tumor tissue homogenate (30 μg/ml), 1 mg/ml compound; for Activation ratio (%) in homogenates from different tumor tissues: Human chronic leukemia K562
Method: as §1, §3, §4, §5, §6

[3] = system: Human colon cancer HT-29 tumor tissue homogenate; type: biochemical; conditions: for Activation ratio (%) in homogenates from different tumor tissues: Human colon cancer HT-29
Method: as §1, §3, §4, §5, §6

[4] = system: Human liver cancer Hepg2 tumor tissue homogenate; type: biochemical; conditions: for Activation Efficiencies (%): Human liver cancer Hepg2 tumor tissue homogenate (30 μg/ml), 1 mg/ml compound; for Activation ratio (%) in homogenates from different tumor tissues: Human liver cancer Hepg2
Method: as §1, §3, §4, §5, §6

[5] = system: Human non-small cell lung cancer A549 tumor tissue homogenate; type: biochemical; conditions: for Activation Efficiencies (%): Human non-small cell lung cancer A549 tumor tissue homogenate (30 μg/ml), 1 mg/ml compound; for Activation ratio (%) in homogenates from different tumor tissues: Human non-small cell lung cancer A549
Method: as §1, §3, §4, §5, §6

[6] = system: Human ovarian cancer SK-OV-3 tumor tissue homogenate; type: biochemical; conditions: for Activation Efficiencies (%): Human ovarian cancer SK-OV-3 tumor tissue homogenate (30 μg/ml), 1 mg/ml compound; for Activation ratio (%) in homogenates from different tumor tissues: Human ovarian cancer SK-OV-3
Method: as §1, §3, §4, §5, §6

[7] = system: Human pancreatic cancer Panc-1 tumor tissue homogenate; type: biochemical; conditions: for Activation Efficiencies (%): Human pancreatic cancer Panc-1 tumor tissue homogenate (30 μg/ml), 1 mg/ml compound; for Activation ratio (%) in homogenates from different tumor tissues: Human pancreatic cancer Panc-1
Method: as §1, §3, §4, §5, §6

[8] = system: Human prostate cancer PC-3 tumor tissue homogenate; type: biochemical; conditions: for Activation Efficiencies (%): Human prostate cancer PC-3 tumor tissue homogenate (30 μg/ml), 1 mg/ml compound; for Activation ratio (%) in homogenates from different tumor tissues: Human prostate cancer PC-3
Method: as §1, §3, §4, §5, §6

[9] = system: Human renal cancer OS-RC-2 tumor tissue homogenate; type: biochemical; conditions: for Activation Efficiencies (%): Human renal cancer OS-RC-2 tumor tissue homogenate (30 μg/ml), 1 mg/ml compound; for Activation ratio (%) in homogenates from different tumor tissues: Human renal cancer OS-RC-2
Method: as §1, §3, §4, §5, §6

[10] = system: D121 lung tumor cells; type: in vivo, C57 mice; conditions: for Treatment effects on C57 mice, in words: compared to the control group and the other treatment groups; for Effect together with PDL1-antibody in promoting immunization and treatment, in words: combination with PDL1-antibody
Outline: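 Endpoint is tumor inhibition rate from tumor size (mm^3) after weekly drug treatment for 4 weeks, begun once s.c. tumors from 10^6 live D121 cells reached 0.3-0.4 cm. Before challenge, C57 mice received three i.p. doses of 5×10^5 irradiated D121 cells, two weeks apart, or saline.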

[11] = system: tumor CD8+ T cells; type: in vivo, C57 mice
Outline: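 Tumour tissue homogenised and single cells filtered, washed, then stained 1 h at ambient temperature with CD45-PE and CD8-FITC antibodies. After washes in PBS with 1% FBS, flow cytometry gave the fraction of CD8⁺ cells among CD45⁺ leucocytes.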

[12] = D121 immunized C57 mice, 13.2 μmol/kg weekly, PDL1 antibody 5 μg/kg where combined, Day 18
[13] = D121 immunized C57 mice, 13.2 μmol/kg, ratio of CD8 positive cells in CD45 positive cells of tumor
[14] = 100 μg acidized homogenate pH6.0, 1 mg/ml, 37°
[15] = D121 immunized C57 mice, drugs weekly for 4 weeks, Day 18 (Example 23)
[16] = 1 mg/ml, acidized homogenate pH6.0, Paclitaxel release by HPLC
[17] = Table 27, immunized C57 mice, D121 lung tumor, drugs weekly for 4 weeks, Day 18
[18] = Day 18, immunized C57 mice, drugs 13.2 μmol/kg, PDL1 antibody 5 μg/kg, weekly for 4 weeks
[19] = ratio of CD8 positive cells in CD45 positive cells of tumor, flow cytometry, drugs 13.2 μmol/kg, PDL1 antibody 5 μg/kg

Molecule: 4-N—(N—(N—(N-(6-maleimido caproyl)-L-alanyl)-L-alanyl)-L-asparaginyl)-amino benzyl alcohol-MMAE-carbamate [Compound S6]
- Activation Efficiencies (%) [1]: 25.6%
- Activation Efficiencies (%) [2]: 28.4%
- Activation Efficiencies (%) ([3]; Human colon cancer HT-29 tumor tissue homogenate (30 μg/ml), 1 mg/ml compound): 22.4%
- Activation Efficiencies (%) [4]: 26.7%
- Activation Efficiencies (%) [5]: 27.4%
- Activation Efficiencies (%) [6]: 23.5%
- Activation Efficiencies (%) [7]: 17.3%
- Activation Efficiencies (%) [8]: 13.2%
- Activation Efficiencies (%) [9]: 20.4%
- Inhibitory rate on tumor Day 18 [10, 12]: 29.47
- Size of tumor (mm^3) Day 18 [10, 12]: 957.46 ± 257.87 mm^3
- Treatment effects on C57 mice, in words [10]: improved treatment effect as compared to the daunorubicin group
- CD8: D45 (%) [11, 13]: 13.0%

Molecule: COCCOCC(=O)N[C@H](C)C(=O)N[C@H](C)C(=O)N[C@H](CC(N)=O)C(=O)Nc1ccc(COC(=O)OC(C(=O)OC2C[C@@]3(O)C(OC(=O)c4ccccc4)[C@@H]4C5(OC(C)=O)COC5C[C@H](O)[C@@]4(C)C(=O)[C@H](OC(C)=O)C(=C2C)C3(C)C)[C@@H](NC(=O)c2ccccc2)c2ccccc2)cc1 (stereo in doubt) [S1′, 2-(2-methoxyethoxy) acetylamino-L-Ala-L-Ala-L-Asn-p-amino-benzyl-paclitaxel]
- Activation ratio (%) in homogenates from different tumor tissues [1, 14]: 92.3%
- activation efficiency (%) ([1]; human breast cancer (MDA-MB435) tumor tissue homogenates pH6.0, 100 μg, 1 mg/ml, control compounds vs S1′-S4′): 94.3%
- Activation ratio (%) in homogenates from different tumor tissues [2, 14]: 64.7%
- Activation ratio (%) in homogenates from different tumor tissues [3, 14]: 79.4%
- Activation ratio (%) in homogenates from different tumor tissues [4, 14]: 95.3%
- Activation ratio (%) in homogenates from different tumor tissues [5, 14]: 86.4%
- Activation ratio (%) in homogenates from different tumor tissues [6, 14]: 88.4%
- Activation ratio (%) in homogenates from different tumor tissues [7, 14]: 94.8%
- Activation ratio (%) in homogenates from different tumor tissues [8, 14]: 97.3%
- Activation ratio (%) in homogenates from different tumor tissues [9, 14]: 86.4%
- Size of tumor (mm^3) Day 18 [10, 15]: 237.60 ± 156.42 mm^3
- inhibitory rate on tumor % Day 18 [10, 15]: 84.9%
- Effect together with PDL1-antibody in promoting immunization and treatment, in words [10]: excellent synergistic effect
- Treatment effects on C57 mice, in words [10]: greatly improved
- CD8: CD45 (%) ([11]; D121 immunized C57 mice (Example 23), CD8 positive cells in CD45 positive cells of tumor): 19.6%

Molecule: COCCOCC(=O)NCCCC[C@H](NC(=O)COCCOC)C(=O)N[C@H](C)C(=O)N[C@H](C)C(=O)N[C@H](CC(N)=O)C(=O)Nc1ccc(COC(=O)OC(C(=O)OC2C[C@@]3(O)[C@@H](OC(=O)c4ccccc4)[C@H]4[C@](C)(C(=O)[C@H](OC(C)=O)C(=C2C)C3(C)C)[C@@H](O)CC2OC[C@]24OC(C)=O)[C@@H](NC(=O)c2ccccc2)c2ccccc2)cc1 (stereo partly drawn) [Compound A1]
- Activation ratio (%) in homogenates from different tumor tissues [1, 16]: 95.6%
- activation efficiency (%) ([1]; Table 24, acidized human breast cancer (MDA-MB435) tumor tissue homogenates pH6.0, 1 mg/ml, Paclitaxel release by HPLC): 95.1%
- Activation ratio (%) in homogenates from different tumor tissues [2, 16]: 67.7%
- Activation ratio (%) in homogenates from different tumor tissues [3, 16]: 82.4%
- Activation ratio (%) in homogenates from different tumor tissues [4, 16]: 98.3%
- Activation ratio (%) in homogenates from different tumor tissues [5, 16]: 89.5%
- Activation ratio (%) in homogenates from different tumor tissues [6, 16]: 91.4%
- Activation ratio (%) in homogenates from different tumor tissues [7, 16]: 97.8%
- Activation ratio (%) in homogenates from different tumor tissues [8, 16]: 100.3%
- Activation ratio (%) in homogenates from different tumor tissues [9, 16]: 89.2%
- Size of tumor (mm^3) Day 18 [10, 17]: 261.36 ± 178.3 mm^3
- inhibitory rate on tumor % Day 18 [10, 17]: 84.52%
- Effect together with PDL1-antibody in promoting immunization and treatment, in words [10]: excellent synergistic effect
- Treatment effects on C57 mice, in words [10]: greatly improved
- CD8: CD45 (%) ([11]; Table 27, CD8 positive cells in CD45 positive cells of tumor, flow cytometry, immunized C57 mice, D121): 20.4%

Molecule: COCCOCCOCCOCCOCCOCC(=O)N[C@H](C)C(=O)N[C@H](C)C(=O)N[C@H](CC(N)=O)C(=O)Nc1ccc(COC(=O)N2[C@H]3[C@@H]2CN2C4=C(C(=O)C(N)=C(C)C4=O)[C@H](COC(N)=O)[C@]32OC)cc1 [Compound E2]
- Activation ratio (%) in homogenates from different tumor tissues ([1]; 37° C., 1 mg/ml): 90.6%
- Activation ratio (%) in homogenates from different tumor tissues ([3]; 37° C., 1 mg/ml): 96.1%
- Activation ratio (%) in homogenates from different tumor tissues ([4]; 37° C., 1 mg/ml): 94.8%
- Activation ratio (%) in homogenates from different tumor tissues ([5]; 37° C., 1 mg/ml): 96.4%
- Activation ratio (%) in homogenates from different tumor tissues ([6]; 37° C., 1 mg/ml): 97.6%
- Activation ratio (%) in homogenates from different tumor tissues ([7]; 37° C., 1 mg/ml): 84.6%
- Activation ratio (%) in homogenates from different tumor tissues ([8]; 37° C., 1 mg/ml): 86.4%
- Activation ratio (%) in homogenates from different tumor tissues ([9]; 37° C., 1 mg/ml): 94.5%
- Size of tumor (mm^3) Day 18 [10, 18]: 331.57 ± 124.45 mm^3
- inhibitory rate on tumor % Day 18 [10, 18]: 83.87%
- Treatment effects on C57 mice, in words [10]: greatly improved
- CD8: CD45 (%) [11, 19]: 19.7%

Molecule: COc1cccc2c1C(=O)c1c(O)c3c(c(O)c1C2=O)C[C@@](O)(C(C)=O)C[C@@H]3O[C@H]1C[C@H](NC(=O)OCc2ccc(NC(=O)[C@H](CC(N)=O)NC(=O)[C@H](C)NC(=O)[C@H](C)NC(=O)CCCCCN3C(=O)C=CC3=O)cc2)[C@H](O)[C@H](C)O1 [Compound S5, 4-N—(N—(N—(N-(6-maleimidocaproyl)-L-alanyl)-L-alanyl)-L-asparaginyl)-amino benzyl alcohol-daunorubicin-carbamate]
- Activation Efficiencies (%) [1]: 96.7%
- Activation Efficiencies (%) [2]: 73.5%
- Activation Efficiencies (%) [4]: 67.3%
- Activation Efficiencies (%) [5]: 96.7%
- Activation Efficiencies (%) [6]: 97.4%
- Activation Efficiencies (%) [7]: 97.4%
- Activation Efficiencies (%) [8]: 97.3%
- Activation Efficiencies (%) [9]: 98.3%
- Size of tumor (mm^3) Day 18 [10, 12]: 379.75 ± 125.64 mm^3
- Treatment effects on C57 mice, in words [10]: greatly improved
- CD8: CD45 (%) [11, 13]: 17.4%

Molecule: CO[C@@]12[C@H](COC(N)=O)C3=C(C(=O)C(C)=C(N)C3=O)N1C[C@@H]1N[C@@H]12 [mitomycin, reference compound]
- Size of tumor (mm^3) Day 18 [10, 18]: 1210.28 ± 368.45 mm^3
- inhibitory rate on tumor % Day 18 [10, 18]: 28.62%
- CD8: CD45 (%) [11, 19]: 6.7%
